Measured values: article PMC9781087, “Discovery of New Microbial Collagenase Inhibitors” (Life, 2022)
Like-named read-outs stand apart in the source and are kept apart here.

Biological target: collagenase A (ColA) (Clostridium perfringens, UniProt P43153)
Assay: biochemical
Set-up: species or system C. perfringens
Conditions: for Inhibition (%) on ColA: after 30 min of incubation
[1] = read-out: Inhibition(%) on ColA
[2] = 100 µM, preliminary screening (Table S1), * = compound precipitated due to low solubility
[3] = read-out: Inhibition (%) on ColA
[4] = 5 µM, mean ± SD of three replications

Sequence of collagenase A (ColA) (P43153 87-1104 limits assumed): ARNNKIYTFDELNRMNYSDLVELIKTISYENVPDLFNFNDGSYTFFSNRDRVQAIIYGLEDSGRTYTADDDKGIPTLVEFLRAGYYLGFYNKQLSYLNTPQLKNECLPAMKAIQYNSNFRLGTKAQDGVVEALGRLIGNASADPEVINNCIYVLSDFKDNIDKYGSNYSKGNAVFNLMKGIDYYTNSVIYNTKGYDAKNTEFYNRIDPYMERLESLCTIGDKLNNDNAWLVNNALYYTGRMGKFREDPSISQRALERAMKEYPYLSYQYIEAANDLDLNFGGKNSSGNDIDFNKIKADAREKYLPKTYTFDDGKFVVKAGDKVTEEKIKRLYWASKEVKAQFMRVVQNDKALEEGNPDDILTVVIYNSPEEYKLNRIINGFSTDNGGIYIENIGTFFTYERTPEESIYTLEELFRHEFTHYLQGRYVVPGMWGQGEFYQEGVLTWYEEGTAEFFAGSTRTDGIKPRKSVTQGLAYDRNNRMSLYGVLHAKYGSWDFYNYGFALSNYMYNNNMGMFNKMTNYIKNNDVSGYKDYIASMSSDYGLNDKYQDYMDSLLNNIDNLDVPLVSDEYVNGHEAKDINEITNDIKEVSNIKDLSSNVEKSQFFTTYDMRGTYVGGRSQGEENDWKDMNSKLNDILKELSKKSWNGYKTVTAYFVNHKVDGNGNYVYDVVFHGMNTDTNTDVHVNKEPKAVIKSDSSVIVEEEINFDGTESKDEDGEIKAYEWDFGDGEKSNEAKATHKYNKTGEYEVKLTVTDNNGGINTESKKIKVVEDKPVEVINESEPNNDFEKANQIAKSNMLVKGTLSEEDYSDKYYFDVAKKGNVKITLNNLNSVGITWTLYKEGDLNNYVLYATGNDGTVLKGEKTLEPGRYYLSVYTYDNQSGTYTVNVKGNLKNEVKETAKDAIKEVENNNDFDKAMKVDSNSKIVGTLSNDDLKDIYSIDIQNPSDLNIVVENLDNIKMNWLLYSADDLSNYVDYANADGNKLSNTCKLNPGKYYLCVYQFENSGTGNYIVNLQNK

Oc1cc(O)nc(S)n1 [4,6-dihydroxy-2-mercaptopyrimidine]
inhibition at 100 µM [1]: -7.2%

Nc1ccc2c(c1N)C(=O)c1ccccc1C2=O [1,2-diaminoanthraquinone]
inhibition at 100 µM [1]: 4.3%

COc1ccc(-c2coc3cc(OC)ccc3c2=O)cc1 [daidzein dimethyl ether]
Inhibition (%) on ColA [2]: 15.7%

CCOC(=O)[C@H](CCCNC(=N)N)NC(=O)c1ccccc1.Cl [benzoyl-L-arginine ethyl ester hydrochloride]
Inhibition (%) on ColA [2]: -6.6%

C[C@H](CS)C(=O)N1CCC[C@H]1C(=O)O [captopril, reference compound]
inhibition at 100 µM [1]: 5.2%

O=c1c(O)c(-c2ccccc2)oc2ccccc12 [3-Hydroxyflavone, 3-hydroxyflavone]
inhibitory effect on ColA (in words): low impact on the enzyme activity | inhibition at 1 µM [3]: -13.4 ± 2.7% | inhibition at 5 µM [3]: -17 ± 5.1% | inhibition at 10 µM [3]: 17.4 ± 4.5% | inhibition at 50 µM [3]: 25.1 ± 6.8% | inhibition at 100 µM [3]: 31 ± 4.3% | inhibition at 100 µM [1]: 27.6%

COc1cc(-c2oc3cc(O)cc(O)c3c(=O)c2O)ccc1O [isorhamnetin]
inhibition at 100 µM [1]: 19.9%

C[C@@H]1CC[C@H]2[C@@H](C)C(=O)O[C@@H]3O[C@@]4(C)CC[C@@H]1[C@]32OO4 [artemisinin, reference compound]
inhibition at 100 µM [1]: 5.6%

O=C(O)C1CCCN1S(=O)(=O)c1cccc(C(F)(F)F)c1 (stereo not drawn) [1-{[3-(trifluoromethyl)phenyl]sulfonyl}-2-pyrrolidinecarboxylic acid]
inhibition at 100 µM [1]: 0.7%

O=c1cc(-c2ccccc2)oc2cccc(O)c12 [Primuletin, primuletin]
inhibitory effect on ColA (in words): low impact on the enzyme activity | inhibition at 1 µM [3]: -9.3 ± 1.7% | inhibition at 5 µM [3]: -8.8 ± 2.1% | inhibition at 10 µM [3]: -0.7 ± 1.3% | inhibition at 50 µM [3]: 8.5 ± 2.1% | inhibition at 100 µM [3]: 25.4 ± 1.8% | inhibition at 100 µM [1]: 33.1%

O=c1cc(-c2ccc(O)cc2)oc2cccc(O)c12 [4′,5-Dihydroxyflavone, 4′,5-dihydroxyflavone]
IC50 (in words): nanomolar range | inhibitory effect on ColA (in words): potently inhibits its activity | Inhibition (%) on ColA [4]: Almost complete inhibition | inhibition at 1 µM [3]: -48 ± 3.6% | inhibition at 5 µM [3]: 101.6 ± 0.6% | inhibition at 10 µM [3]: 107.5 ± 1% | inhibition at 50 µM [3]: 101 ± 1.9% | inhibition at 100 µM [3]: 105 ± 2.9% | inhibition at 100 µM [1]: 15%

COc1ccc(-c2coc3cc(O)cc(O)c3c2=O)cc1 [Biochanin A, biochanin A]
inhibitory effect on ColA (in words): potent inhibitory effect | Inhibition (%) on ColA (50 µM, mean ± SD of three replications): Almost complete inhibition | inhibition at 1 µM [3]: -24.8 ± 5.3% | inhibition at 5 µM [3]: 23 ± 2.6% | inhibition at 10 µM [3]: 34.1 ± 2.2% | inhibition at 50 µM [3]: 99.1 ± 1% | inhibition at 100 µM [3]: 76.1 ± 0.7% | inhibition at 100 µM [1]: 57.9%

Cc1ccc(S(=O)(=O)N[C@@H](CCCNC(=N)N)C(=O)O)cc1 [nalpha-p-toluenesulfonyl-L-arginine]
Inhibition (%) on ColA [2]: 24.8%

COc1cc([C@@H]2c3cc4c(cc3[C@H](O)[C@H]3COC(=O)[C@H]23)OCO4)cc(OC)c1OC [podophyllotoxin, reference compound]
inhibition at 100 µM [1]: -9.7%

NS(=O)(=O)c1cc2c(cc1C(F)(F)F)NC(Cc1ccccc1)NS2(=O)=O (stereo not drawn) [bendroflumethiazide, reference compound]
inhibition at 100 µM [1]: 21.6%

CC(=O)NCCCS(=O)(=O)O [acamprosate calcium, reference compound]
inhibition at 100 µM [1]: 17.2%

CC1=CC(=O)c2c(O)cccc2C1=O [plumbagin]
inhibition at 100 µM [1]: -7.7%

O=C(/C=C/c1ccccc1)c1ccccc1O [2′-Hydroxychalcone, 2′-hydroxychalcone]
inhibitory effect on ColA (in words): potent inhibitory effect | Inhibition (%) on ColA (100 µM, mean ± SD of three replications (five-dose assay)): Almost complete inhibition | inhibition at 1 µM [3]: -12.1 ± 0.2% | inhibition at 5 µM [3]: 1.2 ± 0.9% | inhibition at 10 µM [3]: 6.5 ± 1.3% | inhibition at 50 µM [3]: 21.8 ± 1.2% | inhibition at 100 µM [3]: 97.3 ± 1.3% | inhibition at 100 µM [1]: 87.8%

O=c1c(-c2ccc(O)cc2)coc2cc(O)ccc12 [daidzein]
inhibition at 100 µM [1]: 5.8%

CC(NS(=O)(=O)c1cccc(Cl)c1)C(=O)O (racemic) [N-(3-chlorophenylsulfonyl)-DL-alanine]
inhibition at 100 µM [1]: -19.2%

NC(=O)NCCC[C@H](N)C(=O)O [Citrulline, citrulline]
inhibition at 1 µM [3]: -4.3 ± 3.5% | inhibition at 5 µM [3]: -14.1 ± 1.4% | inhibition at 10 µM [3]: 27.8 ± 3% | inhibition at 50 µM [3]: 24.3 ± 1.7% | inhibition at 100 µM [3]: 7.2 ± 0.5% | inhibition at 100 µM [1]: 6.8%

COc1cc(CNC(=O)CCCC/C=C/C(C)C)ccc1O [Capsaicin, capsaicin, reference compound]
IC50 (in words): nanomolar range | Inhibition (%) on ColA (1 µM, mean ± SD of three replications, 1 µM): 94.8 ± 0.8% | Inhibition (%) on ColA (1 µM, mean ± SD of three replications, listed as capsaicin, 1 µM): Almost complete inhibition | Inhibition (%) on ColA [4]: 100.5 ± 0.8% | Inhibition (%) on ColA [2]: 87.9%

Cc1cc(NC(=O)C2=C(O)c3ccccc3S(=O)(=O)N2C)no1 [isoxicam, reference compound]
inhibition at 100 µM [1]: -10.1%

N[C@@H](CS)C(=O)O [cysteine]
inhibition at 100 µM [1]: 1.7%

Cc1cc(O)c2c(c1)C(=O)c1cccc(O)c1C2=O [chrysophanol]
inhibition at 100 µM [1]: -11.1%

O=C(O)C=Cc1cccc(O)c1 [3-hydroxycinnamic acid]
inhibition at 100 µM [1]: 0.8%

O=c1ccc2cc(O)ccc2o1 [6-hydroxycoumarin]
inhibition at 100 µM [1]: 12.5%

O=C1c2c(O)cccc2C([C@@H]2O[C@H](CO)[C@@H](O)[C@H](O)[C@H]2O)c2cc(CO)cc(O)c21 (stereo partly drawn) [aloin]
inhibition at 100 µM [1]: 4.4%

NC(=O)NCCC[C@H](NC(=O)OCC1c2ccccc2-c2ccccc21)C(=O)O [Fmoc-L-citrulline]
Inhibition (%) on ColA [2]: 20.8%

COc1ccc2oc(-c3ccccc3)c(O)c(=O)c2c1 [6-methoxyflavonol]
inhibition at 100 µM [1]: 10.7%

Cc1ccc(S(=O)(=O)NC(N)=O)cc1 [4-methylphenylsulfonylurea]
inhibition at 100 µM [1]: 19.6%

C[C@@H]1O[C@@H](OC[C@H]2O[C@@H](Oc3c(-c4ccc(OCCO)c(OCCO)c4)oc4cc(OCCO)cc(O)c4c3=O)[C@H](O)[C@@H](O)[C@@H]2O)[C@H](O)[C@H](O)[C@H]1O [trihydroxyethylrutin, reference compound]
Inhibition (%) on ColA [2]: 1.3%

O=C(O)c1cc(O)c2c(c1)C(=O)c1cccc(O)c1C2=O [Rhein, rhein]
inhibitory effect on ColA (in words): potent inhibitors of ColA | inhibition at 1 µM [3]: 2.6 ± 0.6% | inhibition at 5 µM [3]: 22.9 ± 2.7% | inhibition at 10 µM [3]: 37.4 ± 3.2% | inhibition at 50 µM [3]: 77.3 ± 2.2% | inhibition at 100 µM [3]: 80.6 ± 1% | inhibition at 100 µM [1]: 78.5%

CC1(C)[C@H](C(=O)O)N2C(=O)C[C@H]2S1(=O)=O [sulbactam, reference compound]
inhibition at 100 µM [1]: -10.7%

Oc1cc(O)c2c(c1)O[C@H](c1ccc(O)c(O)c1)[C@H](O)C2 [epicatechin]
inhibition at 100 µM [1]: 3.6%

O=c1c(O)c(-c2ccccc2)oc2ccc(O)cc12 [3,6-dihydroxyflavone]
inhibitory effect on ColA (in words): low inhibitory effects | inhibition at 100 µM [1]: 2.7%

O=c1c(O)c(-c2cc(O)c(O)c(O)c2)oc2cc(O)cc(O)c12 [Myricetin, myricetin]
inhibitory effect on ColA (in words): low inhibitory effect | inhibition at 1 µM [3]: -15.4 ± 2.7% | inhibition at 5 µM [3]: -4.5 ± 1.1% | inhibition at 10 µM [3]: -1 ± 1.1% | inhibition at 50 µM [3]: 13.6 ± 0.6% | inhibition at 100 µM [3]: 23.2 ± 2% | inhibition at 100 µM [1]: 27.6%

O=c1ccc2cc(O)c(O)cc2o1 [esculetin]
inhibitory effect on ColA (in words): low effects | inhibition at 100 µM [1]: 11.8%

CC(=O)c1c(O)c(C)c(O)c2c1OC1=CC(=O)C(C(C)=O)C(=O)C12C (stereo not drawn) [usnic acid]
inhibition at 100 µM [1]: 3.9%

O=c1ccc2ccc(O)cc2o1 [umbelliferone]
inhibition at 100 µM [1]: -10.2%

O=S(=O)(O)CCS [sodium 2-mercaptoethanesulfonate, reference compound]
inhibition at 100 µM [1]: 20.6%

O=c1oc(-c2ccccc2)cc2ccccc12 [3-phenyl-1H-2-benzopyran-1-one]
inhibition at 100 µM [1]: 0.2%

COc1ccc(-c2oc3ccccc3c(=O)c2O)cc1 [4'-methoxyflavonol, 4′-methoxyflavonol]
inhibition at 100 µM [1]: 3.7%

O=C(O)c1cc(O)c(O)c(O)c1 [gallic acid]
inhibition at 100 µM [1]: -21.4%

CC(=O)N[C@@H](CS)C(=O)O [acetylcysteine, reference compound]
inhibition at 100 µM [1]: 3.4%

O=c1cc(-c2ccccc2)oc2cc(O)cc(O)c12 [chrysin]
inhibitory effect on ColA (in words): low inhibitory effects | inhibition at 100 µM [1]: -3.4%

O=C(O)[C@@H](S)[C@@H](S)C(=O)O [meso-2,3-dimercaptosuccinic acid, reference compound]
inhibition at 100 µM [1]: 25.6%

O=c1cc(-c2ccc(O)cc2)oc2cc(O)cc(O)c12 [apigenin]
inhibition at 100 µM [1]: 2.7%

O=C(/C=C/c1ccc(O)c(O)c1)O[C@@H]1C[C@](O)(C(=O)O)C[C@@H](O)[C@H]1O [chlorogenic acid]
inhibition at 100 µM [1]: 4.8%

C/C(=C(\CCOP(=O)(O)O)SC(=O)c1ccccc1)N(C=O)Cc1cnc(C)nc1N [benfotiamine, reference compound]
inhibition at 100 µM [1]: -20.4%

O=C(O)[C@H]1/C(=C/CO)O[C@@H]2CC(=O)N21 [potassium clavulanate, reference compound]
inhibition at 100 µM [1]: -8.1%

C[C@]1(Cn2ccnn2)[C@H](C(=O)O)N2C(=O)C[C@H]2S1(=O)=O [tazobactam, reference compound]
inhibition at 100 µM [1]: 18.7%

O=C1C=C(O)C(=O)c2ccccc21 [lawsone]
inhibition at 100 µM [1]: -6.1%

Cl.NCCS [cysteamine hydrochloride, reference compound]
Inhibition (%) on ColA [2]: 2.8%

O=c1c(-c2ccc(O)cc2)coc2cc(O)cc(O)c12 [genistein]
inhibition at 100 µM [1]: -1.1%

COc1ccc2[nH]c3c(c2c1)CCNC3C(=O)O (stereo not drawn) [6-methoxy-1,2,3,4-tetrahydro-9H-pyrido [3,4-b]indole-1-carboxylic acid]
inhibition at 1 µM [3]: -19.9 ± 2.7% | inhibition at 5 µM [3]: -1.3 ± 2.1% | inhibition at 10 µM [3]: -5.2 ± 0.7% | inhibition at 50 µM [3]: 2.8 ± 1.3% | inhibition at 100 µM [3]: 19.6 ± 3.9% | inhibition at 100 µM [1]: 18.8%

myricitrin
inhibitory effect on ColA (in words): low inhibitory effect
